This is an account of results in US11286236B2, “Compound, agent and composition for the suppression of cancer growth” (Vector Vitale IP LLC, priority 2018, dated 2022).

Each structure is given as a SMILES string. Counter-ions that a name gives are not always drawn.

Common to all, as to type: cell-based
Experiment [1] deals with Mouse melanoma cells (MM-4 cell line). Put plainly: Cytotoxic effect on melanoma cells, single agents (crystal violet). As to the method: Materials and Methods: Mouse melanoma cells (MM-4 cell line) were seeded into 96-well plates (TPP, Italy) in DMEM (High Glucose w/L-Glutamine w/o Sodium Pyruvate; Biowest, France) supplemented with 10% newborn calf serum (Biowest, France) and […] gentamicin (Sigma, USA) at a seeding density of 5×10^4 cells/ml. The cells were then cultured in an incubator with a humidified atmosphere of 5% CO2 in air at 37° C. 24 hours after the cells were seeded, a compound according to the invention that comprises ^85Rb-enriched rubidium salt of N-benzoyl-N′-(4-toluenesulfonyl)-o-phenylenediamine of formula I was added into the appropriate wells. ^85Rbe-E2 was used at the following doses: 2.0 μg/ml, 1.0 μg/ml, 0.5 μg/ml (each is the final concentration of ^85Rbe after addition to the well). The cytotoxic effect was determined by counting the number of live cells observed after treatment, expressed as a percentage of the number of live cells observed/counted in the control (cells seed in the well and not treated). Control cells were not treated. For each concentration, the experiment was carried out twice. The effects of the drugs were evaluated visually, which allowed us to examine the morphological pattern of the cytotoxic action of the drugs, and by staining the cells with crystal violet, followed by OD measurement at an excitation wavelength of 540 nm using a MultiScan spectrophotometer. For comparison, a parallel experiment was carried out with the use of a known antitumor drug cisplatin and a compound of rubidium salt of N-benzoyl-N′-(4-toluenesulfonyl)-o-phenylenediamine of formula I which comprised a naturally-abundant mixture of isotopes of rubidium instead of being enriched for the ^85Rb isotope.

The test system of experiment [2] is Mouse B16 melanoma cells (MM-4 cell line). Put plainly: Cytotoxic/cytostatic activity of E2+85Rbe and antitumor drug added simultaneously. As to the method: The effects of the complex action of various doses of the investigated substances were evaluated using the concept of synergistic, additive and antagonistic effects of the drugs. The mathematics are detailed below. […] The effects were calculated using the Chou-Talalay method according to the following equation (“CI” refers to the “combination index”) (see T.-C. […] Where both the ^85Rb-enriched rubidium salt (referred to as “E2+^85Rbe”) and an AD were administered, they were administered simultaneously.

The test system of experiment [3] is Mouse melanoma cells (MM-4 cell line). Nature of the experiment: Cytotoxic effect of E2+85Rbe and antitumor drug added 24 hours apart. The method, then:
The effectiveness of the method of the invention that comprises administering antitumor drugs and ^85Rb-enriched rubidium salt of N-benzoyl-N-(4-toluenesulfonyl)-o-phenylenediamine of formula I was measured in the experiment. […] Both orders were tested: AD administered first (Scheme 2, below), and AD administered second (Scheme 1, below).
Materials and Methods: Mouse melanoma cells (MM-4 cell line) were seeded into 96-well plates (TPP, Italy), in DMEM (Biowest, France) supplemented with 10% newborn calf serum (Biowest, France) and […] gentamicin (Sigma, USA) at a seeding density of 5×10^4 cells/ml. The cells were then cultured in an incubator with a humidified atmosphere of 5% CO2 in air at 37° C. The experiment was carried out in accordance with the three schemes given below. The experiment was started 24 hours after the cells were seeded. For this purpose, the agents used in the method were introduced into the appropriate wells. The following schemes of introduction were used for the study:
Scheme 1) The ^85Rb-enriched rubidium salt of N-benzoyl-N′-(4-toluenesulfonyl)-o-phenylenediamine of formula I was introduced at the first stage in the following amounts: 2.0 μg/ml, 1.0 μg/ml, 0, 5 μg/ml, and one antitumor drug was introduced at the second stage (after 24 hours).
Scheme 2) An AD was introduced at the first stage at doses as indicated in Scheme 1 above and ^85Rb-enriched rubidium salt of N-benzoyl-N′-(4-toluenesulfonyl)-o-phenylenediamine of formula I was introduced at the second stage (after 24 hours) at the following doses: 2.0 μg/ml, 1.0 μg/ml, 0.5 μg/ml.
After all the agents were added into the wells, the cells were incubated at 37° C. and 5% CO2 for another 72 hours (96 hours in total after the cells were seeded).
As in example 2, the cytotoxic effect was determined as the percentage of the cell number with respect to the control after their treatment in accordance with the claimed method. The effects of the drugs were evaluated visually, which allowed us to examine the morphological pattern of the cytotoxic action of the drugs, and by staining the cells with crystal violet, followed by OD measurement at an excitation wavelength of 540 nm using a MultiSkan microplate spectrophotometer.
The effects of the complex action of various doses of the investigated substances were evaluated using the concept of synergistic, additive and antagonistic effects of the drugs, as for Example 2, and calculating CI as described in Example 2.
Each table sets forth the % of MM-4 cells that survived in the presence of the drug doses indicated in the in vitro experiments described above, expressed as a percentage of the cells in the control wells.

For `N.N.[Cl][Pt][Cl]` [cisplatin], the “Number of cells after their treatment with the drug, %” value worked out at 84 ± 3.3% in experiment [1] (cisplatin 0.5 μg/ml); 51.7 ± 6.9% in experiment [1] (cisplatin 1.0 μg/ml); 24.6 ± 5.2% in experiment [1] (cisplatin 2.5 μg/ml); 13.8 ± 1.2% in experiment [1] (cisplatin 5 μg/ml); 2.6 ± 1.4% in experiment [1] (cisplatin 10 μg/ml). Besides, the “% surviving MM-4 cells” value in experiment [2] (cisplatinum 0.5 μg/ml alone) amounted to 84 ± 3.3%; in experiment [2] (cisplatinum 1 μg/ml alone) it was 51.7 ± 6.9%; in experiment [2] (cisplatinum 2.5 μg/ml alone), 24.6 ± 5.2%; in experiment [2] (cisplatinum 5 μg/ml alone) it was 13.8 ± 1.2%; in experiment [2] (cisplatinum 10 μg/ml alone) it was 2.6 ± 1.4%; in experiment [3] (cisplatinum 0.5 μg/ml alone, first stage) it was 84 ± 3.3%. Moreover, the “% surviving MM-4 cells” value in experiment [3] (cisplatinum 0.5 μg/ml alone, second stage) was 84.6 ± 3.5%; in experiment [3] (cisplatinum 1 μg/ml alone, first stage) it was 51.7 ± 6.9%; in experiment [3] (cisplatinum 1 μg/ml alone, second stage), 70 ± 3.6%; in experiment [3] (cisplatinum 2.5 μg/ml alone, first stage), 24.6 ± 5.2%; in experiment [3] (cisplatinum 2.5 μg/ml alone, second stage) it was 34 ± 2.6%; in experiment [3] (cisplatinum 5 μg/ml alone, first stage), 13.8 ± 1.2%. The “% surviving MM-4 cells” value was found to be 35.2 ± 3.3% in experiment [3] (cisplatinum 5 μg/ml alone, second stage); 2.6 ± 1.4% in experiment [3] (cisplatinum 10 μg/ml alone, first stage); 19.4 ± 0.9% in experiment [3] (cisplatinum 10 μg/ml alone, second stage).
As to `Cc1ccc(S(=O)(=O)Nc2ccccc2NC(=O)c2ccccc2)cc1` [^85Rbe − E2, ^85Rb-enriched rubidium salt of N-benzoyl-N′-(4-toluenesulfonyl)-o-phenylenediamine], the “Number of cells after their treatment with the drug, %” value in experiment [1] (0.5 μg/ml of rubidium (85Rbe or Rb)) was 32.3 ± 0.7%; in experiment [1] (1.0 μg/ml of rubidium (85Rbe or Rb)), 8.3 ± 0.5%; in experiment [1] (2.0 μg/ml of rubidium (85Rbe or Rb)), 6.4 ± 0.3%. The “% surviving MM-4 cells” value is on record as 32.3 ± 0.7% in experiment [2] (E2+85Rbe 0.5 μg/ml alone); 8.3 ± 0.5% in experiment [2] (E2+85Rbe 1 μg/ml alone); 6.4 ± 0.3% in experiment [2] (E2+85Rbe 2 μg/ml alone); 32.3 ± 0.7% in experiment [3] (E2+85Rbe 0.5 μg/ml alone, first stage); 51 ± 1% in experiment [3] (E2+85Rbe 0.5 μg/ml alone, second stage (24 h later)); 8.3 ± 0.5% in experiment [3] (E2+85Rbe 1 μg/ml alone, first stage). In addition, the “% surviving MM-4 cells” value in experiment [3] (E2+85Rbe 1 μg/ml alone, second stage (24 h later)) was found to be 19 ± 0.5%; in experiment [3] (E2+85Rbe 2 μg/ml alone, first stage), 6.4 ± 0.3%; in experiment [3] (E2+85Rbe 2 μg/ml alone, second stage (24 h later)), 17.7 ± 0.8%.
